# According to patent US20210145804A1, “COMPOSITIONS AND METHODS FOR TREATING DISORDERS AMELIORATED BY MUSCARINIC RECEPTOR ACTIVATION” (Karuna Therapeutics, Inc., priority 2019, published 2021):
# Marks after values point to notes of the source that are not given here.
# Legend:
# [1] = Mutagenic potential of xanomeline synthesis intermediate
# [2] = system: normal healthy volunteers; parameters: species or system human; details: in vivo
# Description: A Phase I, double-blind, randomized multiple-dose pilot study was conducted with xanomeline administered alone compared to xanomeline administered with trospium chloride in normal healthy volunteers. […]
# Alzheimer's disease = details: 26-week study of Alzheimer's disease; cited from earlier work
# [3] = KAR-001 Phase I study: xanomeline and trospium plasma pharmacokinetics; type: in vivo, human
smiles,measurement,setting,value
CCCCCCOc1nsnc1-c1ccc[n+](C)c1 [Compound V],Mutagenic potential,[1],negative
"CCCCCCOc1nsnc1C1=CCCN(C)C1 [Xanomeline + placebo, xanomeline]",AE leading to discontinuation (D/C),[2],2 (6.1) n (%)
same,AE leading to discontinuation (D/C): # events,[2],2
same,Any SAE,[2],0 (0.0) n (%)
same,Any TEAE: # events,[2],108
same,"Any cholinergic TEAEs, number of individual occurrences",[2],64 #
same,Any clinically significant TEAE,[2],5 (15.2) n (%)
same,Any clinically significant TEAE: # events,[2],5
same,Any study drug-related TEAE,[2],23 (69.7) n (%)
same,Any study drug-related TEAE: # events,[2],92
same,"Cholinergic adverse events, Any TEAEs: # of events",[2],64
same,"Cholinergic adverse events, Any TEAEs: subjects",[2],21 (63.6%) n [%]
same,"Cholinergic adverse events, Diarrhea: # of events",[2],8
same,"Cholinergic adverse events, Diarrhea: subjects",[2],7 (21.2%) n [%]
same,"Cholinergic adverse events, Nausea: # of events",[2],11
same,"Cholinergic adverse events, Nausea: subjects",[2],8 (24.2%) n [%]
same,"Cholinergic adverse events, Salivation: # of events",[2],16
same,"Cholinergic adverse events, Salivation: subjects",[2],12 (36.4%) n [%]
same,"Cholinergic adverse events, Sweating: # of events",[2],24
same,"Cholinergic adverse events, Sweating: subjects",[2],16 (48.5%) n [%]
same,"Cholinergic adverse events, Vomiting: # of events",[2],5
same,"Cholinergic adverse events, Vomiting: subjects",[2],5 (15.2%) n [%]
same,"Diarrhea, incidence",[2],7 (20.6) n (%)
same,"Diarrhea, number of individual occurrences",[2],8 #
same,"Gastrointestinal disorders (cholinergic TEAE), incidence",[2],18 (52.9) n (%)
same,"Gastrointestinal disorders (cholinergic TEAE), number of individual occurrences",[2],40 #
same,"Hyperhidrosis, incidence",[2],16 (47.1) n (%)
same,"Hyperhidrosis, number of individual occurrences",[2],24 #
same,Incidence rate of sweating (hyperhidrosis),[2],48.5%
same,Max Severity of TEAE: Mild,[2],22 (66.7) N/A n (%)
same,Max Severity of TEAE: Moderate,[2],5 (15.2) N/A n (%)
same,Max Severity of TEAE: Severe,[2],0 (0.0) n (%)
same,Max severity of study drug-related TEAE: Mild,[2],19 (57/6) N/A n (%)
same,Max severity of study drug-related TEAE: Moderate,[2],4 (12.1) N/A n (%)
same,Max severity of study drug-related TEAE: Severe,[2],0 (0.0) N/A n (%)
same,"Nausea, incidence",[2],8 (23.5) n (%)
same,"Nausea, number of individual occurrences",[2],11 #
same,"Salivary hypersecretion, incidence",[2],12 (35.3) n (%)
same,"Salivary hypersecretion, number of individual occurrences",[2],16 #
same,"Skin and subcutaneous tissue disorders (cholinergic TEAE), incidence",[2],16 (47.1) n (%)
same,"Skin and subcutaneous tissue disorders (cholinergic TEAE), number of individual occurrences",[2],24 #
same,Study drug related AE leading to D/C,[2],1 (3.0) n (%)
same,Study drug related AE leading to D/C: # events,[2],1
same,Subjects reporting at least one cholinergic adverse event,[2],63%
same,Subjects who experienced syncope,[2],Two
same,Subjects with any TEAE,[2],27 (81.8) n (%)
same,"Subjects with any cholinergic TEAEs, incidence",[2],21 (61.8) n (%)
same,"Vomiting, incidence",[2],5 (14.7) n (%)
same,"Vomiting, number of individual occurrences",[2],5 #
same,Dropout rate,Alzheimer's disease,56%
"O=C(O[C@H]1C[C@H]2CC[C@@H](C1)[N+]21CCCC1)C(O)(c1ccccc1)c1ccccc1 [trospium alone, trospium chloride]",Trospium Tmax,"[3]; KAR-001 Day 1, 20 mg trospium BID lead-in, median",3.0 h
same,Tmax,"[3]; human, in vivo, 20 mg, KAR-001 Day 1, read-out: Trospium median Tmax",3 h
same,Cmax,"[3]; human, in vivo, KAR-001 Day 1, 20 mg trospium BID lead-in, geometric mean",0.722 ng/mL
same,AUC(0-inf),"[3]; human, in vivo, KAR-001 Day 1, 20 mg trospium BID lead-in, geometric mean, read-out: Trospium AUC0-inf",7.79 ng·h/mL
same,AUC,"[3]; human, in vivo, KAR-001 Day 1, 20 mg trospium BID lead-in, geometric mean, read-out: Trospium AUC0-tau",5.03 ng·h/mL
